Data published in ChEMBL document CHEMBL3856264, “Discovery of novel 2',4'-dimethyl-[4,5'-bithiazol]-2-yl amino derivatives as orally bioavailable TRPV4 antagonists for the treatment of pain: Part 1” (Bioorg Med Chem Lett, 2016).
Values after ≈ are worked out from the molar mass of the structure shown.

Legend:
[1] = Stability in human liver microsomes assessed as compound remaining after 30 mins in presence or absence of NADPH generating system at 37 degC; assay type: ADME, microsome; details: read-out: Stability
[2] = Aqueous solubility of compound in sodium phosphate buffer containing 1% DMSO at pH 6.8; assay type: physicochemical
[3] = target: T1, Transient receptor potential cation channel subfamily V member 4 (Homo sapiens, UniProt Q9HBA0); assay: Antagonist activity at human recombinant TRPV4 expressed in CHO-K1 cells assessed as blockade of 1000 nM 4alphaPDD-induced calcium mobilization by FLIPR assay; assay type: cell-based
[4] = Oral bioavailability in guinea pig at 1 mg/kg; assay type: ADME, organism-based, Cavia porcellus; details: in vivo
[5] = Stability in guinea pig liver microsomes assessed as compound remaining after 30 mins in presence or absence of NADPH generating system at 37 degC; assay type: ADME, Cavia porcellus, microsome; details: read-out: Stability
[6] = target: Transient receptor potential cation channel subfamily V member 1 (Homo sapiens, UniProt Q8NER1); assay: Antagonist activity at human TRPV1 expressed in CHO cells assessed as blockade of 100 nM capsaicin-induced calcium mobilization by FLIPR assay; assay type: cell-based
[7] = Protein binding in guinea pig plasma; assay type: ADME, cell-free, Cavia porcellus; details: read-out: PPB (converted)
[8] = target: Voltage-gated inwardly rectifying potassium channel KCNH2 (Homo sapiens, UniProt Q12809); assay: Inhibition of human ERG
Cytochrome P450 2C19 = Cytochrome P450 2C19 (Homo sapiens, UniProt P33261); assay: Inhibition of CYP2C19 (unknown origin); assay type: ADME
Cavia porcellus [9] = assay: Analgesic activity in FCA-induced guinea pig mechanical hyperalgesia model assessed as reversal of mechanical hyperalgesia at 10 mg/kg, po after 1 hr (reference value: 1.6 +/- 3.4%); assay type: functional
Cytochrome P450 1A2 = target: T2, Cytochrome P450 1A2 (Homo sapiens, UniProt P05177); assay: Inhibition of CYP1A2 (unknown origin); assay type: ADME
T2 sequence (P05177 whole entry): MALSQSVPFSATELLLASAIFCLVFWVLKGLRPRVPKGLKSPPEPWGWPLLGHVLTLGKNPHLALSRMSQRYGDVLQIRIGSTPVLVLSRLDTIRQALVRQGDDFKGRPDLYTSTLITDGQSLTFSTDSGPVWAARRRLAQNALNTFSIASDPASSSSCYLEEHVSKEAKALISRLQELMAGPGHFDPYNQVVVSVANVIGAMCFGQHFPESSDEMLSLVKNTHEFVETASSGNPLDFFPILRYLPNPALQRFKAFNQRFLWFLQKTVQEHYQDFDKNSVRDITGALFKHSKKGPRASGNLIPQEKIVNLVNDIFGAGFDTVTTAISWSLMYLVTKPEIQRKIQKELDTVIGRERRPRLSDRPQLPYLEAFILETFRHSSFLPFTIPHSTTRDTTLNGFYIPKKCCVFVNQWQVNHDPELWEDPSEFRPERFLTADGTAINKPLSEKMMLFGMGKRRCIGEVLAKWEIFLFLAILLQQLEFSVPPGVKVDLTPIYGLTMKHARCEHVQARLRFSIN

[10] = AUC in guinea pig at 1 mg/kg, po; assay type: ADME, organism-based, Cavia porcellus; details: in vivo
Cavia porcellus [11] = assay: Analgesic activity in FCA-induced guinea pig mechanical hyperalgesia model assessed as reversal of mechanical hyperalgesia at 30 mg/kg, po after 1 hr (reference value: 1.6 +/- 3.4%); assay type: functional
[12] = Volume of distribution at steady state in guinea pig at 0.5 mg/kg, iv; assay type: ADME, organism-based, Cavia porcellus; details: in vivo, read-out: Vdss
Salmonella typhimurium = assay: Genotoxicity in Salmonella typhimurium by Ames test; assay type: toxicity, organism-based; details: salmonella enterica subsp. enterica serovar typhimurium
[13] = Half life in guinea pig at 0.5 mg/kg, iv; assay type: ADME, organism-based, Cavia porcellus; details: in vivo
[14] = Cmax in guinea pig at 1 mg/kg, po; assay type: ADME, organism-based, Cavia porcellus; parameters: dose 1 mg/kg, route oral; details: in vivo
CHO-K1 = assay: Selectivity ratio of IC50 for guinea pig recombinant TRPV4 expressed in CHO-K1 cells to IC50 for human recombinant TRPV4 expressed in CHO-K1 cells; assay type: cell-based
[15] = Tmax in guinea pig at 1 mg/kg, po; assay type: ADME, organism-based, Cavia porcellus; details: in vivo
[16] = Total clearance in guinea pig at 0.5 mg/kg, iv; assay type: ADME, organism-based, Cavia porcellus; details: in vivo
[17] = Antagonist activity at guinea pig recombinant TRPV4 expressed in CHO-K1 cells assessed as blockade of 250 nM 4alphaPDD-induced calcium mobilization by FLIPR assay; assay type: cell-based; details: Cavia porcellus
[18] = Plasma concentration in FCA-induced guinea pig mechanical hyperalgesia model at 10 mg/kg, po after 1 hr; assay type: ADME, organism-based, Cavia porcellus
Cytochrome P450 2D6 = Cytochrome P450 2D6 (Homo sapiens, UniProt P10635); assay: Inhibition of CYP2D6 (unknown origin); assay type: ADME
Cytochrome P450 3A4 = Cytochrome P450 3A4 (Homo sapiens, UniProt P08684); assay: Inhibition of CYP3A4 (unknown origin); assay type: ADME
[19] = Plasma concentration in FCA-induced guinea pig mechanical hyperalgesia model at 30 mg/kg, po after 1 hr; assay type: ADME, organism-based, Cavia porcellus
Cytochrome P450 2C9 = Cytochrome P450 2C9 (Homo sapiens, UniProt P11712); assay: Inhibition of CYP2C9 (unknown origin); assay type: ADME
[20] = target: T1, Transient receptor potential cation channel subfamily V member 4; assay: Antagonist activity at human recombinant TRPV4 expressed in CHO-K1 cells assessed as blockade of hypotonic solution-induced calcium mobilization by FLIPR assay; assay type: cell-based

T1 sequence (Q9HBA0 whole entry): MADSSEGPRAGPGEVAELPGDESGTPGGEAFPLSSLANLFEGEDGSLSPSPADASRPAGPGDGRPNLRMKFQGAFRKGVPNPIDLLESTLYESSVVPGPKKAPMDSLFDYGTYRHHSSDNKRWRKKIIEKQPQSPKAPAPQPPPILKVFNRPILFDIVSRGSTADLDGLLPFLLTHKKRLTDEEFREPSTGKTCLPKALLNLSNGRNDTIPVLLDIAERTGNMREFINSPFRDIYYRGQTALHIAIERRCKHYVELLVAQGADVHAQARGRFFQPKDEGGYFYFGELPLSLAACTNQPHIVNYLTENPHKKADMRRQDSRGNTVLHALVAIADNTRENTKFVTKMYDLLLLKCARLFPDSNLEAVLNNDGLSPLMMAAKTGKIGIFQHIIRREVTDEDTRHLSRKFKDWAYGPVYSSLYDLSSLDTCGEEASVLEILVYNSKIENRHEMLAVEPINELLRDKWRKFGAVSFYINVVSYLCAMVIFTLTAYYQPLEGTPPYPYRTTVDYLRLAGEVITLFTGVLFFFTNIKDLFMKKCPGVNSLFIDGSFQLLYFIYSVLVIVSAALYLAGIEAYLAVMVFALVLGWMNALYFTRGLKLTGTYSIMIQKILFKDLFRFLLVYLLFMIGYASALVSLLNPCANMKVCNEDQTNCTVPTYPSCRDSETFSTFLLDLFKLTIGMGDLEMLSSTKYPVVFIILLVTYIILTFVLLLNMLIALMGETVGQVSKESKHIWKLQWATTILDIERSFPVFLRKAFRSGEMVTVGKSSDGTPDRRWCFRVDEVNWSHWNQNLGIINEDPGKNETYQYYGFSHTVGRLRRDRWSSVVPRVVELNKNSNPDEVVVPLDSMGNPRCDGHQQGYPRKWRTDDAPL
Transient receptor potential cation channel subfamily V member 1, sequence (Q8NER1 whole entry): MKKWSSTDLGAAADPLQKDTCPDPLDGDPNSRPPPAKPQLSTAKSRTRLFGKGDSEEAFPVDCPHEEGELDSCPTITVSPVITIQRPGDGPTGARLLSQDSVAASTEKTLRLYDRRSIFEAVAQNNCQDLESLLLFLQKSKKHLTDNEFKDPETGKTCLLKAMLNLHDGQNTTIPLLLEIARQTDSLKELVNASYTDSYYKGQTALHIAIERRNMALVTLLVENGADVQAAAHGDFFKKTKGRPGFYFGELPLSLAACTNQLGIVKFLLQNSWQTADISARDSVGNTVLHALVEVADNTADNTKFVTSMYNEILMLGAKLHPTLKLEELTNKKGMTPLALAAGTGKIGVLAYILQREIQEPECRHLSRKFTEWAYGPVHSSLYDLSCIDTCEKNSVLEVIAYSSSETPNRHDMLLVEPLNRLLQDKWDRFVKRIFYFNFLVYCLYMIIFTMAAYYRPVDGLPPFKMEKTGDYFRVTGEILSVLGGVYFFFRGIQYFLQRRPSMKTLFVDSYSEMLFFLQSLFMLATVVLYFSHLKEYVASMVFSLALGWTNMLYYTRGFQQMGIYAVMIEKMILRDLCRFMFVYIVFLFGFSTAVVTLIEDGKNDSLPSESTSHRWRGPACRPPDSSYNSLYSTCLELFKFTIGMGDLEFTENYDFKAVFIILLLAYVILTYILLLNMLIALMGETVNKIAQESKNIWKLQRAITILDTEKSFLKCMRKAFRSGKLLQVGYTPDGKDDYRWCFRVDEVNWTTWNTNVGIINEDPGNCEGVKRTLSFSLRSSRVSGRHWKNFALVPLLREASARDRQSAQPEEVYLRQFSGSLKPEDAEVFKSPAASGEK
Cytochrome P450 2C19, sequence (P33261 whole entry): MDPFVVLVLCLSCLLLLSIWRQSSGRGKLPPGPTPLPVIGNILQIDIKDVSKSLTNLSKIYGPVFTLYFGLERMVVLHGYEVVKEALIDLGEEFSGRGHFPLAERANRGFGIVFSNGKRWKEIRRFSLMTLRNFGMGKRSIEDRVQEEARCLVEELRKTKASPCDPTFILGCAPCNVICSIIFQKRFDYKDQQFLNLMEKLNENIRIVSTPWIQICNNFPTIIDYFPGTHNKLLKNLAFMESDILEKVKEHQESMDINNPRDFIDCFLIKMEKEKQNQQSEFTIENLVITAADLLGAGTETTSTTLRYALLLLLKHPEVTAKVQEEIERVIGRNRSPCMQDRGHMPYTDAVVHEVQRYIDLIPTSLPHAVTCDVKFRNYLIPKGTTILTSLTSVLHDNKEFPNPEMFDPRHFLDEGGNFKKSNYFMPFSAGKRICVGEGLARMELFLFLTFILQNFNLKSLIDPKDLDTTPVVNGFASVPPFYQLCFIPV
Voltage-gated inwardly rectifying potassium channel KCNH2, sequence (Q12809 whole entry): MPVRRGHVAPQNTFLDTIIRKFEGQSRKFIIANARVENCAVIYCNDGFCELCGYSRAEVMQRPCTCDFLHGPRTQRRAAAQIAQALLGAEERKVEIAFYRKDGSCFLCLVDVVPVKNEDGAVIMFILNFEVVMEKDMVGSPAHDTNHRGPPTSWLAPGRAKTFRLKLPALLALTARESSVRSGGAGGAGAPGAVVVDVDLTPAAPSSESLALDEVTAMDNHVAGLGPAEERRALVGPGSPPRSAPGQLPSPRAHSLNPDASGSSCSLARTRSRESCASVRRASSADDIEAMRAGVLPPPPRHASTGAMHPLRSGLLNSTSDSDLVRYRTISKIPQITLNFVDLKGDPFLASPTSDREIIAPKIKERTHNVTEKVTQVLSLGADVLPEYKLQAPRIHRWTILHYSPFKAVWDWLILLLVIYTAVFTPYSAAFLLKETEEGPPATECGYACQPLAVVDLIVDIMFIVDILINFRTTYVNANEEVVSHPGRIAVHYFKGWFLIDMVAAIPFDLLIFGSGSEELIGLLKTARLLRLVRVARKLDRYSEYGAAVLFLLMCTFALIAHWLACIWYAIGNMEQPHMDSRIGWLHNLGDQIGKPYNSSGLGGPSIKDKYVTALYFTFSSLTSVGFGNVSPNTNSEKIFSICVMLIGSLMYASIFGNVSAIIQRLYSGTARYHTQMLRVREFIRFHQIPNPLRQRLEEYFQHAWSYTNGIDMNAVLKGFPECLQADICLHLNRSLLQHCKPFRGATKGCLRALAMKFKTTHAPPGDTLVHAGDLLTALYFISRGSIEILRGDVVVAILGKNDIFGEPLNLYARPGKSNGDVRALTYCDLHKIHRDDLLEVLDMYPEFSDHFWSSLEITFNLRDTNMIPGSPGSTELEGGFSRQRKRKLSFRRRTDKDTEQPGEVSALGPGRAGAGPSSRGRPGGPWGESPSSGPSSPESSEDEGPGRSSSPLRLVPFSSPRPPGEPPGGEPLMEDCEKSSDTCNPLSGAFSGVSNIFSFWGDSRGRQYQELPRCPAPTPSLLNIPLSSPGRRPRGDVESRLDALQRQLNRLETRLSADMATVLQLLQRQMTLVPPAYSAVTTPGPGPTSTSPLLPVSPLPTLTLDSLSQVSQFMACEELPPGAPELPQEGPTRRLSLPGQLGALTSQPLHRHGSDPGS
Cytochrome P450 2D6, sequence (P10635 whole entry): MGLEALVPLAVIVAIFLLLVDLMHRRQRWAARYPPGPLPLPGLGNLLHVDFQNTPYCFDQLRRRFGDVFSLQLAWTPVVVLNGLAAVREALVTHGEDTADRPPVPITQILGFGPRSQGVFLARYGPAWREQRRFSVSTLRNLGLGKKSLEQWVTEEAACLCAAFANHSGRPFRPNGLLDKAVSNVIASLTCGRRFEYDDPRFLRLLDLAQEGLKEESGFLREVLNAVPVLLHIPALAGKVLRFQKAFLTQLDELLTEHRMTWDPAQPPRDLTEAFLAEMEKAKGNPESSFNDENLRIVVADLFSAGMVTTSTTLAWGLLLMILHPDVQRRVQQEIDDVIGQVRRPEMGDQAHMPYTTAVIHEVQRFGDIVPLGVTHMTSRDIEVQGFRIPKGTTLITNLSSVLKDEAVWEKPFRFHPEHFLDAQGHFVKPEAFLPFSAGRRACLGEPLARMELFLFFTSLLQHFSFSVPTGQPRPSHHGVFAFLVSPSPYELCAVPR
Cytochrome P450 3A4, sequence (P08684 whole entry): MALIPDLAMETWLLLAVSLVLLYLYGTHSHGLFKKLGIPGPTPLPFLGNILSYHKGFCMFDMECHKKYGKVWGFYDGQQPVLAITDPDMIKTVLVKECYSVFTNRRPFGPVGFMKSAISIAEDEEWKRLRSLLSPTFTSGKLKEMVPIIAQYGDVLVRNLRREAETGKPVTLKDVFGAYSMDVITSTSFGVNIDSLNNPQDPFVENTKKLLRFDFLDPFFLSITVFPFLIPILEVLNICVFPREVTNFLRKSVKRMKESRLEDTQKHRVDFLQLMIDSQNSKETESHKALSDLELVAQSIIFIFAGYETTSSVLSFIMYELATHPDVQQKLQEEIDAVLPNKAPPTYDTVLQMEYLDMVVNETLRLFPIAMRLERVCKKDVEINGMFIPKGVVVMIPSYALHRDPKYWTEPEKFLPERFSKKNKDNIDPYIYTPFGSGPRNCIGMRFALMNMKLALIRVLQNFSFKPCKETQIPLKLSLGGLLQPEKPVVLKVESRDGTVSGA
Cytochrome P450 2C9, sequence (P11712 whole entry): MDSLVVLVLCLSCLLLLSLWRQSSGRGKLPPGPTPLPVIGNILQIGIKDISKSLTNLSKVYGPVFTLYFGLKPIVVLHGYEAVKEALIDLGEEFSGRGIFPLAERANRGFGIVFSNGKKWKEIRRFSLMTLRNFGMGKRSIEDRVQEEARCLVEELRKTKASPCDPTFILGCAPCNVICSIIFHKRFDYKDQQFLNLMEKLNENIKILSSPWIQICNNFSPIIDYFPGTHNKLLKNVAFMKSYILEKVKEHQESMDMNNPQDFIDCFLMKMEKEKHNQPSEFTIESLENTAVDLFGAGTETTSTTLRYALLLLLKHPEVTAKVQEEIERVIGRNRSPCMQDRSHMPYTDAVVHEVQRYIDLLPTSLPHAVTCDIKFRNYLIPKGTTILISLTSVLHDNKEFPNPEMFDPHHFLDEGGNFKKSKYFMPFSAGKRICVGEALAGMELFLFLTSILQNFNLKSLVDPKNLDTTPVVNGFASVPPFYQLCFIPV

## Cc1nc(C)c(-c2csc(Nc3ccc(C(=O)N4CCC(=O)CC4)cn3)n2)s1
[1]
  remaining at 0.5 h: 1.4%
[2]
  solubility: > 50 µM
[3]
  IC50: 620 nM

## Cc1nc(C)c(-c2csc(Nc3ccc(Br)cc3)n2)s1
[1]
  remaining at 0.5 h: 86.4%
[3]
  IC50: 34 nM

## Cc1nc(C)c(-c2csc(Nc3ccc(S(=O)(=O)Nc4ccc(Cl)cc4)cn3)n2)s1
[1]
  remaining at 0.5 h: 83.4%
[2]
  solubility: 4.5 µM (≈ 2.15 µg/mL)
[3]
  IC50: 290 nM

## Cc1nc(C)c(-c2csc(Nc3ccccc3)n2)s1
[1]
  remaining at 0.5 h: 22.8%
[3]
  IC50: 31 nM

## Cc1nc(C)c(-c2csc(Nc3ccc(C(=O)O)cn3)n2)s1
[1]
  remaining at 0.5 h: 100%
[2]
  solubility: > 50 µM
[3]
  IC50: > 10000 nM

## Cc1nc(C)c(-c2csc(Nc3ccc(C(=O)N4CCCCC4)cn3)n2)s1
[1]
  remaining at 0.5 h: 74.5%
[2]
  solubility: 0.8 µM (≈ 0.32 µg/mL)
[3]
  IC50: 37 nM

## COc1cccc(Nc2nc(-c3sc(C)nc3C)cs2)n1
[1]
  remaining at 0.5 h: 40%
[3]
  IC50: 23 nM

## Cc1nc(C)c(-c2csc(Nc3ccc(NC(=O)c4ccc(Cl)cc4)cn3)n2)s1
[1]
  remaining at 0.5 h: 65.2%
[2]
  solubility: 3.9 µM (≈ 1.72 µg/mL)
[3]
  IC50: > 10000 nM

## Cc1nc(C)c(-c2csc(Nc3cccc(C#N)n3)n2)s1
[1]
  remaining at 0.5 h: 66.4%
[3]
  IC50: 100 nM

## Cc1nc(C)c(-c2csc(Nc3ccc(C(=O)Nc4ccc(Cl)cc4)cn3)n2)s1
[1]
  remaining at 0.5 h: 54.6%
[2]
  solubility: 10.6 µM (≈ 4.68 µg/mL)
[3]
  IC50: 9.5 nM

## Cc1nc(C)c(-c2csc(Nc3ccc(C(=O)NCc4ccc(Cl)cc4)cn3)n2)s1
[1]
  remaining at 0.5 h: 50.8%
[2]
  solubility: 2.5 µM (≈ 1.14 µg/mL)
[3]
  IC50: 200 nM

## Cc1nc(C)c(-c2csc(Nc3cc(C#N)ccn3)n2)s1
[1]
  remaining at 0.5 h: 2.8%
[3]
  IC50: 240 nM

## Cc1nc(C)c(-c2csc(Nc3ccccn3)n2)s1
[1]
  remaining at 0.5 h: 1.1%
[3]
  IC50: 10 nM

## Cc1nc(C)c(-c2csc(Nc3ncccn3)n2)s1
[1]
  remaining at 0.5 h: 0.3%
[3]
  IC50: 10000 nM

## Cc1nc(C)c(-c2csc(Nc3ccc(C(=O)N4C(C)CC(=O)CC4C)cn3)n2)s1 (centres undefined)
[1]
  remaining at 0.5 h: 52.8%
[2]
  solubility: 45 µM (≈ 19.9 µg/mL)
[3]
  IC50: 46 nM

## Cc1nc(C)c(-c2csc(Nc3ccc(C(=O)NC4CCCCC4)cn3)n2)s1
[1]
  remaining at 0.5 h: 55%
[2]
  solubility: 1.8 µM (≈ 0.744 µg/mL)
[3]
  IC50: 29 nM

## COc1cccnc1Nc1nc(-c2sc(C)nc2C)cs1
[1]
  remaining at 0.5 h: 30.9%
[3]
  IC50: > 10000 nM

## CCOC(=O)c1ccc(Nc2nc(-c3sc(C)nc3C)cs2)nc1
[1]
  remaining at 0.5 h: 13.5%
[2]
  solubility: 3.4 µM (≈ 1.23 µg/mL)
[3]
  IC50: 11 nM

## Cc1nc(C)c(-c2csc(Nc3ccc(NS(=O)(=O)c4ccc(Cl)cc4)cn3)n2)s1
[1]
  remaining at 0.5 h: 81.5%
[2]
  solubility: 1.2 µM (≈ 0.574 µg/mL)
[3]
  IC50: 240 nM

## Cc1nc(C)c(-c2csc(Nc3ccc(C(=O)N4C5COCC4CC(=O)C5)cn3)n2)s1
[4]
  bioavailability: 38.6%
[5]
  remaining at 0.5 h: 84%
[6]
  IC50: > 10000 nM
[7]
  fraction unbound: 0.1
[8]
  IC50: > 30000 nM
Cytochrome P450 2C19
  INH: > 20 µM
Cavia porcellus [9]
  Activity: 30.8%
Cytochrome P450 1A2
  INH: > 20 µM
[10]
  AUC: 200 ng·h/mL
Cavia porcellus [11]
  Activity: 45.6%
[1]
  remaining at 0.5 h: 100%
[12]
  Vd: 2.5 L/kg
Salmonella typhimurium
  Activity: Non-Toxic
[13]
  half-life: 66 min
[2]
  solubility: > 50 µM
[14]
  Cmax: 59.2 ng/mL
CHO-K1
  Ratio IC50: 1.4
[15]
  Tmax: 30 min
[16]
  clearance: 37.1 mL/min/kg
[17]
  IC50: 27 nM
[18]
  concentration at 1 h: 515 ng/mL
Cytochrome P450 2D6
  INH: > 20 µM
Cytochrome P450 3A4
  INH: > 20 µM
[19]
  concentration at 1 h: 1940 ng/mL
Cytochrome P450 2C9
  INH: > 20 µM
[20]
  IC50: 3.1 nM

## COc1ccc(Nc2nc(-c3sc(C)nc3C)cs2)nc1
[1]
  remaining at 0.5 h: 10%
[3]
  IC50: 35 nM

## Cc1nc(C)c(-c2csc(Nc3ccc(C(=O)N4C5CCC4CC(=O)C5)cn3)n2)s1
[1]
  remaining at 0.5 h: 81%
[2]
  solubility: 46.4 µM (≈ 20.4 µg/mL)

## Cc1nc(C)c(-c2csc(Nc3ccc(C(=O)N(C)c4ccc(Cl)cc4)cn3)n2)s1
[1]
  remaining at 0.5 h: 53.6%
[2]
  solubility: 1.4 µM (≈ 0.638 µg/mL)
[3]
  IC50: 50 nM

## Cc1nc(C)c(-c2csc(Nc3cccnc3)n2)s1
[1]
  remaining at 0.5 h: 39.5%
[3]
  IC50: 490 nM

## Cc1nc(C)c(-c2csc(Nc3ncccc3C#N)n2)s1
[1]
  remaining at 0.5 h: 1.3%
[3]
  IC50: 4300 nM

## Cc1nc(C)c(-c2csc(Nc3ccc(C(=O)N4C(C)CCCC4C)cn3)n2)s1 (centres undefined)
[1]
  remaining at 0.5 h: 2.1%
[2]
  solubility: < 0.1 µM
[3]
  IC50: 6.3 nM

## Cc1nc(C)c(-c2csc(Nc3ccncc3)n2)s1
[1]
  remaining at 0.5 h: 17.8%
[3]
  IC50: 3300 nM

## CCNC(=O)c1ccc(Nc2nc(-c3sc(C)nc3C)cs2)nc1
[1]
  remaining at 0.5 h: 81.4%
[2]
  solubility: 2.8 µM (≈ 1.01 µg/mL)
[3]
  IC50: > 10000 nM

## Cc1nc(C)c(-c2csc(Nc3ccc(C#N)cn3)n2)s1
[1]
  remaining at 0.5 h: 65%
[2]
  solubility: 1.7 µM (≈ 0.533 µg/mL)
[3]
  IC50: 22 nM

## COc1ccnc(Nc2nc(-c3sc(C)nc3C)cs2)c1
[1]
  remaining at 0.5 h: 0.7%
[3]
  IC50: 410 nM
